Results published in PubChem BioAssay AID1918955 (Molecular Pharmacology Branch, DTP, NCI, 2023).

Test system: NCI/ADR-RES complex spheroid viability
Assay: Anticancer human tumor NCI/ADR-RES cell line growth inhibition;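 also: spheroids exposed to compounds for 7 days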;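 as to viability, T/C: 100% = DMSO vehicle treated spheroids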
Conditions: for IC50: curve of first compound; for viability, T/C: stronger effect = lower value
Text: Multicellular complex tumor spheroid response to LSD1 Inhibitor Iadademstat in combination with a variety of drugs and investigational agents in selected tumor cell lines
The current study was undertaken to assess response to LSD1 inhibitors in combination with standard-of-care drugs and investigational agents in solid tumor complex spheroid models as well as in the K-562 leukemia. Complex spheroids include a stromal component modeled by human endothelial cells (HUVEC) and fibroblasts modeled by human mesenchymal stem cells (MSCs). The concentration ranges selected for each drug and investigational agent were based upon clinically achievable concentrations if the clinical Cmax of the agent was known.
Compounds. The drugs and investigational agents used in this study are listed on Table 1. All of the agents used, including staurosporine (NSC755774) and gemcitabine (NSC613327), were obtained from the Developmental Therapeutics Program, NCI. FDA-approved anticancer drugs are available from the NCI at http://dtp.nci.nih.gov/branches/dscb/oncology_drugset_explanation.html. Drugs and investigational agents were >95% pure by proton nuclear magnetic resonance (NMR) and liquid chromatography/mass spectrometry (LC/MS). Stock solutions were prepared at 400x in DMSO, stored at -70 degrees C, and diluted in fresh medium prior to their use. The final concentration of DMSO in cell culture wells never exceeded 0.25% (v/v). The FDA-approved anticancer drug set is available from the Developmental Therapeutics Program at https://dtp.cancer.gov/organization/dscb/obtaining/available_plates.htm. All drugs and investigational agents were tested over a range starting from a high concentration at or near the clinical Cmax and decreasing in half-log increments. If the clinical Cmax for an agent had not been determined, the highest concentration tested was 10 microM.
Cell Lines. The patient-derived cancer cell (PDC) lines: 292921-168-R-J2-PDC, K24384-001-R-PDC, and 521955-158-R2-J5-PDC pancreatic carcinomas, 556581-035-R-J1 ovarian carcinoma, 324938-238-R-J1-PDC, 855422-203-R-J1-PDC and 883617-216-R-J1-PDC urothelial bladder carcinomas, 743489-274-T-PDC renal cell carcinoma, 138582-R-J1 Merkel cell tumor, K60290-347-R-J1 and K57222-313-R-J1-PDC glioblastomas, 653999-131-R-J2-PDC, LG0703-F948-PDC, and 349418-098-R-PDC non-small cell lung carcinomas, 885512-296-R-J2-PDC, 171881-019-R-J1-PDC breast carcinomas and 186277-243-T-J2-PDC and 233499-124-R-J2-PDC colon carcinomas were obtained from the NCI Patient-Derived Models Repository (PDMR, https://pdmr.cancer.gov). The established cell lines NCI/ADR-RES (RRID:CVCL_14520 and OVCAR-5 (RRID:CVCL_1628) ovarian carcinomas, 786-O (RRID:CVCL_1051) and A498 (RRID:CVCL_A498) renal cell carcinoma, NCI-H211 (ATCC, cat. CRL-5824; RRID:CVCL_1529), NCI-H196 (ATCC, cat. CRL-5823, RRID:CVCL_1509), SW 1271 (ATCC, cat. CRL-2177, RRID:CVCL_1716) and NCI-H1876 (ATCC, cat. CRL-5902, RRID:CVCL_1503) small cell lung carcinomas, MDA-MB-231 (RRID:CVCL_0062) and MDA-MB-468 (RRID:CVCL_0419)breast carcinomas (10-12). Pooled donor human umbilical vein endothelial cells (HUVEC, Lonza, cat. CC-2519) and human mesenchymal stem cells (hMSC, Lonza, cat. PT-2501) were purchased from Lonza (Walkersville, MD).
Cell Culture. All cells were maintained in an incubator at 37 degrees C and 5% CO2 with 95% humidity. The PDC lines were cultured according to standard operating procedures established by the NCI PDMR (https://pdmr.cancer.gov). Briefly all PDCs were thawed and cultured in Matrigel-coated flasks prepared with a working solution of 1X Ham's F-12 nutrient mix, without supplementation (Invitrogen, Waltham, MA, cat. 11765054), 100 U/mL penicillin-streptomycin (Invitrogen, cat. 15140122), and 2.5% Matrigel (Corning Inc., Corning, NY, cat. 354248) for the first three passages. […]

[1] = second compound 0.1 µM, first compound 0.000949 µM
[2] = second compound 0.1 µM, first compound 0.003 µM
[3] = second compound 0.1 µM, first compound 0.00949 µM
[4] = second compound 0.1 µM, first compound 0.03 µM
[5] = second compound 0.1 µM, first compound 0.0949 µM
[6] = second compound 0.1 µM, first compound 0.3 µM
[7] = second compound 0.316 µM, first compound 0.000949 µM
[8] = second compound 0.316 µM, first compound 0.003 µM
[9] = second compound 0.316 µM, first compound 0.00949 µM
[10] = second compound 0.316 µM, first compound 0.03 µM
[11] = second compound 0.316 µM, first compound 0.0949 µM
[12] = second compound 0.316 µM, first compound 0.3 µM
[13] = second compound 1 µM, first compound 0.000949 µM
[14] = second compound 1 µM, first compound 0.003 µM
[15] = second compound 1 µM, first compound 0.00949 µM
[16] = second compound 1 µM, first compound 0.03 µM
[17] = second compound 1 µM, first compound 0.0949 µM
[18] = second compound 1 µM, first compound 0.3 µM
[19] = second compound 3.16 µM, first compound 0.000949 µM
[20] = second compound 3.16 µM, first compound 0.003 µM
[21] = second compound 3.16 µM, first compound 0.00949 µM
[22] = second compound 3.16 µM, first compound 0.03 µM
[23] = second compound 3.16 µM, first compound 0.0949 µM
[24] = second compound 3.16 µM, first compound 0.3 µM
[25] = second compound 10 µM, first compound 0.000949 µM
[26] = second compound 10 µM, first compound 0.003 µM
[27] = second compound 10 µM, first compound 0.00949 µM
[28] = second compound 10 µM, first compound 0.03 µM
[29] = second compound 10 µM, first compound 0.0949 µM
[30] = second compound 10 µM, first compound 0.3 µM

CCc1c2c(nc3ccc(O)cc13)-c1cc3c(c(=O)n1C2)COC(=O)[C@]3(O)CC + NC1CC1c1ccc(-c2cccc(O)c2)cc1
IC50 (second compound 0.1 µM): < 0.949 nM
IC50 (second compound 0.316 µM): < 0.949 nM
IC50 (second compound 1 µM): < 0.949 nM
IC50 (second compound 3.16 µM): < 0.949 nM
IC50 (second compound 10 µM): < 0.949 nM
viability, T/C [1]: 3.8%
viability, T/C [2]: 1.6%
viability, T/C [3]: 0.64%
viability, T/C [4]: 0.32%
viability, T/C [5]: 0.23%
viability, T/C [6]: 0.59%
viability, T/C [7]: 3.44%
viability, T/C [8]: 1.85%
viability, T/C [9]: 0.73%
viability, T/C [10]: 0.21%
viability, T/C [11]: 0.3%
viability, T/C [12]: 0.38%
viability, T/C [13]: 4.73%
viability, T/C [14]: 3.11%
viability, T/C [15]: 0.96%
viability, T/C [16]: 0.37%
viability, T/C [17]: 0.24%
viability, T/C [18]: 0.51%
viability, T/C [19]: 8.34%
viability, T/C [20]: 2.9%
viability, T/C [21]: 1.29%
viability, T/C [22]: 0.29%
viability, T/C [23]: 0.18%
viability, T/C [24]: 0.31%
viability, T/C [25]: 20.9%
viability, T/C [26]: 3.67%
viability, T/C [27]: 1.58%
viability, T/C [28]: 0.59%
viability, T/C [29]: 0.26%
viability, T/C [30]: 0.3%

Nc1ccn(C2OC(CO)C(O)C2(F)F)c(=O)n1 (stereo not given) + NC1CC1c1ccc(-c2cccc(O)c2)cc1
IC50 (second compound 0.1 µM): < 0.949 nM
IC50 (second compound 0.316 µM): < 0.949 nM
IC50 (second compound 1 µM): < 0.949 nM
IC50 (second compound 3.16 µM): < 0.949 nM
IC50 (second compound 10 µM): < 0.949 nM
viability, T/C [1]: 2.63%
viability, T/C [2]: 2.71%
viability, T/C [3]: 2.9%
viability, T/C [4]: 2.13%
viability, T/C [5]: 1.39%
viability, T/C [6]: 0.69%
viability, T/C [7]: 2.24%
viability, T/C [8]: 2.81%
viability, T/C [9]: 2.22%
viability, T/C [10]: 1.81%
viability, T/C [11]: 1.11%
viability, T/C [12]: 0.86%
viability, T/C [13]: 2.39%
viability, T/C [14]: 2.3%
viability, T/C [15]: 2.24%
viability, T/C [16]: 2.16%
viability, T/C [17]: 1.32%
viability, T/C [18]: 0.73%
viability, T/C [19]: 2.52%
viability, T/C [20]: 2.29%
viability, T/C [21]: 2.22%
viability, T/C [22]: 2.18%
viability, T/C [23]: 1.17%
viability, T/C [24]: 0.8%
viability, T/C [25]: 2.57%
viability, T/C [26]: 2.57%
viability, T/C [27]: 3.02%
viability, T/C [28]: 2.33%
viability, T/C [29]: 1.52%
viability, T/C [30]: 1%

O=C(c1cc(Cc2n[nH]c(=O)c3ccccc23)ccc1F)N1CCN(C(=O)C2CC2)CC1 + NC1CC1c1ccc(-c2cccc(O)c2)cc1
IC50 (second compound 0.1 µM): > 10000 nM
IC50 (second compound 0.316 µM): > 10000 nM
IC50 (second compound 1 µM): > 10000 nM
IC50 (second compound 3.16 µM): > 10000 nM
IC50 (second compound 10 µM): > 10000 nM
viability, T/C (second compound 0.1 µM, first compound 0.0316 µM): 112%
viability, T/C (second compound 0.1 µM, first compound 0.1 µM): 108%
viability, T/C (second compound 0.1 µM, first compound 0.316 µM): 107%
viability, T/C (second compound 0.1 µM, first compound 1 µM): 105%
viability, T/C (second compound 0.1 µM, first compound 3.16 µM): 99.5%
viability, T/C (second compound 0.1 µM, first compound 10 µM): 91.8%
viability, T/C (second compound 0.316 µM, first compound 0.0316 µM): 111%
viability, T/C (second compound 0.316 µM, first compound 0.1 µM): 115%
viability, T/C (second compound 0.316 µM, first compound 0.316 µM): 108%
viability, T/C (second compound 0.316 µM, first compound 1 µM): 103%
viability, T/C (second compound 0.316 µM, first compound 3.16 µM): 106%
viability, T/C (second compound 0.316 µM, first compound 10 µM): 95%
viability, T/C (second compound 1 µM, first compound 0.0316 µM): 106%
viability, T/C (second compound 1 µM, first compound 0.1 µM): 106%
viability, T/C (second compound 1 µM, first compound 0.316 µM): 103%
viability, T/C (second compound 1 µM, first compound 1 µM): 104%
viability, T/C (second compound 1 µM, first compound 3.16 µM): 99.4%
viability, T/C (second compound 1 µM, first compound 10 µM): 80.1%
viability, T/C (second compound 3.16 µM, first compound 0.0316 µM): 110%
viability, T/C (second compound 3.16 µM, first compound 0.1 µM): 111%
viability, T/C (second compound 3.16 µM, first compound 0.316 µM): 103%
viability, T/C (second compound 3.16 µM, first compound 1 µM): 97.3%
viability, T/C (second compound 3.16 µM, first compound 3.16 µM): 96.7%
viability, T/C (second compound 3.16 µM, first compound 10 µM): 88.6%
viability, T/C (second compound 10 µM, first compound 0.0316 µM): 91.8%
viability, T/C (second compound 10 µM, first compound 0.1 µM): 95.3%
viability, T/C (second compound 10 µM, first compound 0.316 µM): 96.4%
viability, T/C (second compound 10 µM, first compound 1 µM): 94.4%
viability, T/C (second compound 10 µM, first compound 3.16 µM): 88.7%
viability, T/C (second compound 10 µM, first compound 10 µM): 74.5%
